# Data published in paper PMC11996864, “A small-molecule inhibitor of BCL10-MALT1 interaction abrogates progression of diffuse large B cell lymphoma” (The Journal of Clinical Investigation, 2025).
# Several values for one entry are separate records, joined by “and”; a condition that tells them apart may be missing. Equal entries are not always repeated.
# What was measured:
# [1] = test system: ERK1/2 phosphorylation in Jurkat T cells; test: ERK phosphorylation after CD3/CD28 stimulation (MALT1-independent control); type: cell-based, human; details: for pERK 1/2 (normalized): Jurkat, 1 μM; for ERK phosphorylation: result in words;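 on pERK 1/2 (normalized): Phosphorylated ERK1/2 relative to total ERK1/2 protein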
# Procedure: Western blot analysis of RelB and N4BP1 cleavage was used to test the effect of small molecules on MALT1 protease activity. To this end, 3 million Jurkat T cells were pretreated with compounds for 24 hours in serum-free media, and then 5 μM MG-132 was added for 1 hour before stimulation with CD3/CD28 (Stemcell Technologies, catalog 10971), and lysed in RIPA buffer (Millipore, catalog 20-188) with protease and phosphatase inhibitor cocktail (Pierce, catalog 78446). IKKα/β phosphorylation and IκBα phosphorylation were used as measures of MALT1 scaffolding activity, while ERK1/2 phosphorylation was used as a control. […] For experiments evaluating RelB cleavage and phosphorylation of IκBα in TMD8 cells, cells were treated with compounds for 24 hours in media containing 5% FBS. For RelB Western blot analysis, 5 μM MG-132 (Cell Signaling Technology, catalog 2194s) was added 4 hours before lysis in RIPA lysis buffer with protease/phosphatase inhibitors.
# BCL10-MALT1 interaction = target: T1, BCL10-MALT1 interaction (Homo sapiens, UniProt Q9UDY8); test: ELISA-based BCL10-MALT1 protein-protein interaction assay; details: MALT1 preincubated 1 hour with compound; read-out: IC50, inhibition of MALT1 binding to immobilized BCL10
# T1 construct: GST-tagged recombinant human full-length MALT1 protein in solution; purchased Novus Biologicals H00010892-P01 (MALT1); NBP1-99064 (BCL10)
# Excerpt: A 96-well ELISA was employed, whereby His-tagged full-length BCL10 protein was immobilized in wells and exposed to GST-tagged recombinant human full-length MALT1 protein in solution, followed by detection with anti-MALT1 antibody. Details are provided in Supplemental Methods.
# Plasmids. Plasmids for transfection were verified with Sanger Sequencing. Unless otherwise indicated, plasmids were made by subcloning cDNA fragments from constructs described in previous publications, as noted, and/or site directed mutagenesis. Plasmids in the pcDNA3 or pcDNA3.1 backbone include HA-MALT1(isoform B) (2), HA-MALT1(DD+Ig1-2) (aa 1- […]
# MALT1(Ig1-2) V189R, HA-MALT1(Ig1-2) W203_Q205delinsAAA (Vector Builder), HA-MALT1(Ig1-2) H257_Q259delinsAAA (Vector Builder), HA-MALT1(Ig1-2) […]
# ELISA-based protein-protein interaction assay. […] The plate was read at 450 nm using a spectrophotometer (Molecular Devices SpectraMax i3). […]
# Cytokine ELISAs. Cytokines in cell culture supernatants were measured 20-24h after treatment with 0, 0.01, 0.03, 0.1, 0.3, 1, or 3 µM of compounds using the following ELISA kits according to the manufacturer’s instructions: Human IL-2 ELISA (BioLegend Cat# 431804), Human IL-6 ELISA (BioLegend Cat# 430504), and Human IL-10 ELISA (BioLegend Cat# 430604). […]
# Mouse T-Activator CD3/C28. Supernatant was collected at 24 hours and mouse IL-2 levels were analyzed via ELISA (R&D Systems, Cat# DY402-05).
# T1 sequence (Q9UDY8 1-813 isoform Q9UDY8-2): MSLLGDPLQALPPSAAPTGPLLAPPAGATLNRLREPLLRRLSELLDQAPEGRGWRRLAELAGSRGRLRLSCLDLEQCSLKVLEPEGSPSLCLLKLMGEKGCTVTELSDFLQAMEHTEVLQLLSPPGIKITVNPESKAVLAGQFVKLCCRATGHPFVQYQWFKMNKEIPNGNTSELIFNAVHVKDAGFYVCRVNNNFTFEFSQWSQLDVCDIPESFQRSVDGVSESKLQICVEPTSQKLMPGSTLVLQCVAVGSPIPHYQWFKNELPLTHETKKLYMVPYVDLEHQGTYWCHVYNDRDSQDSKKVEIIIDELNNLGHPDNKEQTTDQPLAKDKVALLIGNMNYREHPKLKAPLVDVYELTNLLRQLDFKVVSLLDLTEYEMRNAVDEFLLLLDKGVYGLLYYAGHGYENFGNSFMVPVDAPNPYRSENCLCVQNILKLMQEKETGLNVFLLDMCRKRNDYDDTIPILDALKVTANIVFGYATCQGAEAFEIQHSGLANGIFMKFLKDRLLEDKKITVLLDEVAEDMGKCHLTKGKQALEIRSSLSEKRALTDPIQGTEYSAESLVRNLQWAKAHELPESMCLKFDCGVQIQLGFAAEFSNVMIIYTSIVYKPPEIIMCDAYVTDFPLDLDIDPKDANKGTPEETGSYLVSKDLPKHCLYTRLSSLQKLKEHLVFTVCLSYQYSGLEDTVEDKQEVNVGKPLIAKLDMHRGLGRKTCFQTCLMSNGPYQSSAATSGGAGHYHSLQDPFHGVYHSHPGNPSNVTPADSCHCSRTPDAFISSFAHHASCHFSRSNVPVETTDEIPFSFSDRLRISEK
Structure (SMILES),pERK 1/2 (normalized) ([1]; CD3/CD28 5 min),pERK 1/2 (normalized) ([1]; CD3/CD28 10 min),pERK 1/2 (normalized) ([1]; CD3/CD28 15 min),pERK 1/2 (normalized) ([1]; CD3/CD28 20 min),ERK phosphorylation [1],IC50 (BCL10-MALT1 interaction)
COc1ccc(CNS(=O)(=O)c2ccc(Cc3ccc(S(=O)(=O)NCc4ccc(OC)cc4)cc3)cc2)cc1 [M1i-124d1],1.155 and 0.776 and 1.27 and 0.7498 and 0.998,1.2674 and 0.9152 and 1.197 and 0.7135 and 0.9691,1.05 and 0.8514 and 1.066 and 0.6774 and 0.9099,0.8015 and 0.6878 and 0.9541 and 0.7317 and 0.9634,unaffected,34 µM
O=S(=O)(NCc1ccc2c(c1)OCO2)c1ccc(Cc2ccc(S(=O)(=O)NCc3ccc4c(c3)OCO4)cc2)cc1 [M1i-124],–,–,–,–,unaffected,16 µM
